Here are results for 15 compounds from patent EP4782453A1 (Beyang Therapeutics Co., Ltd., priority 2023, dated 2025).

Each structure is given as a SMILES string. Read-outs that look alike come from different tables or passages of the source.

Test [1] relates to MOLM-13 (carrying MLL-AF9). Briefly: Inhibition of proliferation of human tumor cells (Alamar Blue, 7 days), MOLM-13. The test is classed as cell-based. Particulars: Homo sapiens, MOLM-13 cells (carrying MLL-AF9), method calls the value GI50. An outline of the steps: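 Cells seeded at 4,000/well (MV-4-11, MOLM-13) or 3,000/well (KG-1a), treated in duplicate with serial compound dilutions for 7 days at 37°C, 5% CO2. Alamar Blue fluorescence read on Day 7, normalised to 0.1% DMSO Day-7 (high) and Day-0 (low) controls; GI50 derived.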
(Alamar Blue is a resazurin reagent that responds to reducing activity.)

The next test deals with T1, Menin-MLL (Homo sapiens, UniProt O00255).
T1 construct: His-Menin (M1-L615 end); purchased BIORTUS BP9210
T1 sequence (O00255 1-615 isoform O00255-1): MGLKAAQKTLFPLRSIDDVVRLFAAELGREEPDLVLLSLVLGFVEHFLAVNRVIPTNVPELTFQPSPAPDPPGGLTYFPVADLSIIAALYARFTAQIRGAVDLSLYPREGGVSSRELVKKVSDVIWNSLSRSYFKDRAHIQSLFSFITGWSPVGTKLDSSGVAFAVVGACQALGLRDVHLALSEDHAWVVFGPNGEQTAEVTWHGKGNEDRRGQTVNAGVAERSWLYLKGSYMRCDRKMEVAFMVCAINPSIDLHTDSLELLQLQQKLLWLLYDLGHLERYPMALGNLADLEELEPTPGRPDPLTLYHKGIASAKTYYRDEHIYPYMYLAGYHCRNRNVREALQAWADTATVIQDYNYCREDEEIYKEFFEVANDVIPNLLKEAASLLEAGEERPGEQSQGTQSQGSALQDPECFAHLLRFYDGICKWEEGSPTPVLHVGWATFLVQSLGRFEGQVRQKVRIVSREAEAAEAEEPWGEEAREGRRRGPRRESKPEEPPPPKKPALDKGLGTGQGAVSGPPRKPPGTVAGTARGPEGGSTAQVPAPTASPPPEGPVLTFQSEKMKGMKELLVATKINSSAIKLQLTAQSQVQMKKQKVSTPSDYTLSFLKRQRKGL
Briefly: Inhibitory activity against Menin-MLL binding (fluorescence polarization). Particulars: 150 nM His-Menin, 15 nM FITC-MLL, 25°C for 60 min. An outline of the steps:
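His-Menin (M1-L615, 150 nM) preincubated with compound 15 min at 25 °C in HEPES pH 7.5, 50 mM NaCl, 1 mM DTT, 0.01% BSA, then 15 nM FITC-MLL4-43 peptide added for 60 min at 25 °C. Fluorescence polarization read; IC50 from 4-parameter logistic fit, duplicates.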

Test [2] concerns MV-4-11 (carrying MLL-AF4). The experiment in a line: Inhibition of proliferation of human tumor cells (Alamar Blue, 7 days), MV-4-11. The test is classed as cell-based. Particulars: Homo sapiens, MV4-11, 168 h, MV-4-11 cells (carrying MLL-AF4), method calls the value GI50. An excerpt:
Experimental Example 2: Evaluation of Inhibitory Activity of Compounds Against Proliferation of Human Tumor Cells
• Human acute lymphoblastic leukemia cells MV-4-11, purchased from American Type Culture Collection, Catalog Number: CRL-9591; • Human acute myeloid leukemia cells MOLM-13, purchased from COBIOER BIOSCIENCES CO., LTD, Catalog Number: CBP60678; • Human acute myeloid leukemia cells KG-1a, purchased from American Type Culture Collection, Catalog Number: CCL-246.1; • Inverted Microscope, purchased from Olympus Tokyo; • Countess™ Automated Cell Counter, purchased from Invitrogen, Model: C10281; and • Multilabel Reader, purchased from Bio-Tek, Model: Synergy HT.
MV-4-11 cells were cultured in an IMDM medium containing 10% fetal bovine serum, KG-a cells were cultured in an IMDM medium containing 20% fetal bovine serum, or MOLM-13 cells were cultured in an RPMI-1640 medium containing 20% fetal bovine serum, each supplemented with 100 U·mL^-1 penicillin and 100 µg·mL^-1 streptomycin. These cells were cultured at 37°C with 5% CO2. The suspensions of individual cell lines were prepared in their respective media and seeded into 96-well plates at a density of 4,000 cells/well for MV-4-11 and MOLM-13 cells, or 3,000 cells/well for KG-1a cells. On the day of the experiment, a compound stock solution was diluted in a 3-fold or 4-fold gradient using DMSO. Each gradient-diluted stock solution was then further diluted 250-fold with a complete medium to prepare a series of working solutions at different concentrations. Subsequently, 100 µL of working solution (containing a 2-fold concentration series of the test compound) was added to each well, with duplicate wells set up for each concentration.
Seven days after compound addition (on Day 7), an Alamar Blue assay reagent (MCE, HY-111391 / CS-0040317) was added to measure the fluorescence intensity in each well. Wells containing the cells in the growth medium supplemented with 0.1% DMSO (Day 7) served as high-read control wells. The readouts from the wells containing the cells in the growth medium supplemented with 0.1% DMSO on the day of compound addition (Day 0) served as low-reading control well. GraphPad Prism software was used to calculate the concentration required to inhibit 50% of cell proliferation (GI50), which serves as a cell proliferation inhibition activity index.

The mark [3] stands for this setting: Menin-MLL IC50, fluorescence polarization.
The mark [4] stands for this setting: fluorescence polarization, read-out: Menin-MLL IC50.

As to `CCS(=O)(=O)N[C@H]1CC[C@H](CN2CC(c3cc(-c4ccc(F)cc4C(=O)N(CC(F)F)C(C)C)c4c(F)nc(C)n4c3)C2)CC1` [Example 132, N-(2,2-difluoroethyl)-5-fluoro-2-[1-fluoro-3-methyl-6-(1-{[(1r,4r)-4-ethanesulfonamidocyclohexyl]methyl}-azacyclobutan-3-yl)imidazo[1,5-a]pyridin-8-yl]-N-(isopropyl)benzamide], the IC50 (usually the concentration needed to halve the response being measured) in test [1] (MOLM-13, 168 h) was found to be 16 nM; on Menin-MLL (setting [3]), 6 nM; in test [2], 17 nM.

As for `Cc1ncc2c(-c3ccc(F)cc3C(=O)N(CC(F)F)C(C)C)cc(C3CN(C(=O)[C@@H]4CCCCN4)C3)cn12` [Example 133], the 50% inhibitory concentration (IC50) was 31 nM in test [1] (168 h), 30 nM at Menin-MLL (setting [4]) and 49 nM in test [2].

Consider `CCS(=O)(=O)N[C@H]1CC[C@H](CN2CCC(c3cc(-c4ccc(F)cc4C(=O)N(CC(F)F)C(C)C)c4cnccn34)CC2)CC1` [Example 139, N-(2,2-difluoroethyl)-5-fluoro-N-(isopropyl)-2-[6-(1-{[(1r,4r)-4-ethanesulfonamidocyclohexyl]methyl}piperidin-4-yl)pyrrolo[1,2-a]pyrazin-8-yl]benzamide], for which the IC50 was 96 nM in test [1] (MOLM-13, 168 h); 42 nM on Menin-MLL (setting [3]); 44 nM in test [2].

On to `CNCCCC(C(C)C)N1CC(c2cc(-c3ccc(F)cc3C(=O)N(CC(F)F)C(C)C)c3c(F)nc(C)n3c2)C1` (stereo not drawn) [Example 141, N-(2,2-difluoroethyl)-5-fluoro-2-(1-fluoro-3-methyl-6-{1-[2-methyl-6-(methylamino)hexan-3-yl]azacyclobutan-3-yl}imidazo[1,5-a]pyridin-8-yl)-N-(isopropyl)benzamide], for which the half-inhibitory concentration (IC50) in test [1] (168 h) was found to be 5.4 nM; at Menin-MLL (setting [4]) it was 5.5 nM; in test [2], 1.1 nM.

As for `CNCCCC(C(C)C)N1CC(c2cc(-c3ccc(F)cc3C(=O)N(CC(F)F)C(C)C)c3cnc(C)n3c2)C1` (stereo not drawn) [Example 148], the IC50 in test [1] (168 h) was 3.6 nM; at Menin-MLL (setting [4]) it was 9 nM; in test [2], 0.95 nM.

As to `CCS(=O)(=O)N[C@@H]1CC[C@@H](CN2CC(c3cc(-c4ccc(F)cc4C(=O)N(CC(F)F)C(C)C)c4cnc(C)n4c3)C2)OC1` [Example 150, N-(2,2-difluoroethyl)-2-[6-(1-{[(2S,5R)-5-ethanesulfonamidooxacyclohexan-2-yl]methyl}azacyclobutan-3-yl)-3-methylimidazo[1,5-a]pyridin-8-yl]-5-fluoro-N-(isopropyl)benzamide], the IC50 came to 36 nM in test [1] (168 h), 24.5 nM at Menin-MLL (setting [4]) and 21 nM in test [2].

`CCS(=O)(=O)N[C@@H]1CC[C@@H](CN2CC(c3cc(-c4ccc(F)cc4C(=O)N(CC(F)F)C(C)C)c4c(F)nc(C)n4c3)C2)OC1` [Example 151]: the IC50 was found to be 61 nM in test [1] (168 h), 15.5 nM on Menin-MLL (setting [4]) and 40 nM in test [2].

Turning to `CCS(=O)(=O)N[C@H]1CC[C@H](CN2CC[C@@H](c3cc(-c4ccc(F)cc4C(=O)N(CC(F)F)C(C)C)c4cnc(C)n4c3)C2)CC1` [Example 164, N-(2,2-difluoroethyl)-5-fluoro-2-{3-methyl-6-[(3S)-1-{[(1r,4r)-4-ethanesulfonamidocyclohexyl]methyl}pyrrolidin-3-yl]imidazo[1,5-a]pyridin-8-yl]-N-(isopropyl)benzamide], the IC50 in test [1] (MOLM-13, 168 h) stood at 6.1 nM; on Menin-MLL (setting [3]), 6 nM; in test [2], 2.2 nM.

Take `COC1CCN(CCC[C@H](C(C)C)N2CC(c3cc(-c4ccc(F)cc4C(=O)N4CCOC[C@H]4C)c4cnn(C)c4c3)C2)CC1` [Example 181-2, 4-{4-fluoro-2-[(3R)-3-methylmorpholin-4-carbonyl]phenyl}-6-{1-[(3R)-6-(4-methoxypiperidin-1-yl)-2-methylhexan-3-yl]azacyclobutan-3-yl}-1-methyl-1H-indazole]: the IC50 in test [1] (168 h) was 39 nM; on Menin-MLL (setting [4]), 13.5 nM; in test [2], 7.9 nM.

As to `CO[C@H]1CCN(CCC[C@H](C(C)C)N2CC(c3cc(-c4ccc(F)cc4C(=O)N4CCOC[C@H]4C)c4cnn(C)c4c3)C2)C1` [Example 184-2], the figures for the IC50 (in test [1] (168 h); at Menin-MLL (setting [4]); in test [2]) were 34 nM, 13 nM and 6.3 nM, respectively.

In the case of `CCS(=O)(=O)N[C@H]1CC[C@H](CN2CC(c3cc(-c4ccc(F)cc4C(=O)N4CCC[C@H]4C)c4c(F)nc(C)n4c3)C2)CC1` [Example 187, N-[(1r,4r)-4-{[3-(1-fluoro-8-{4-fluoro-2-[(2R)-2-methylpyrrolidin-1-carbonyl]phenyl}-3-methylimidazo[1,5-a]pyridin-6-yl)azacyclobutan-1-yl]methyl}cyclohexyl]ethan-1-sulfonamide], the concentration for half-maximal inhibition (IC50) came out at 36 nM in test [1] (MOLM-13, 168 h); 16.5 nM at Menin-MLL (setting [3]); 15 nM in test [2].

For the compound `Cc1ncc2c(-c3ccc(F)cc3C(=O)N3CCC[C@H]3C)cc(C3CN(C(C)C4CCOCC4)C3)cn12` (stereo partly drawn) [Example 190], the concentration for half-maximal inhibition (IC50) stood at 40 nM in test [1] (168 h), 29.5 nM on Menin-MLL (setting [4]) and 25 nM in test [2].

In the case of `COCCN(C)C1CC(C(C(C)C)N2CC(c3cc(-c4ccc(F)cc4C(=O)N4CCOC[C@H]4C)c4cnn(C)c4c3)C2)C1` (stereo partly drawn) [Example 195, 3-{1-[3-(4-{4-fluoro-2-[(3R)-3-methylmorpholin-4-carbonyl]phenyl}-1-methyl-1H-indazol-6-yl)azacyclobutan-1-yl]-2-methylpropyl}-N-(2-methoxyethyl)-N-methylcyclobutan-1-amine], the figures for the half-maximal inhibitory concentration (IC50) (in test [1] (168 h); at Menin-MLL (setting [4]); in test [2]) were 35 nM, 41 nM and 13 nM, respectively.

On to `CO[C@H]1CCN([C@H]2C[C@H](C(C(C)C)N3CC(c4cc(-c5ccc(F)cc5C(=O)N5CCOC[C@H]5C)c5cnn(C)c5c4)C3)C2)C1` (stereo partly drawn) [Example 196-1, 4-{4-fluoro-2-[(3R)-3-methylmorpholin-4-carbonyl]phenyl}-1-methyl-6-(1-{2-methyl-1-[(1r,3r)-3-[(3S)-3-methoxypyrrolidin-1-yl]cyclobutyl]propyl}azacyclobutan-3-yl)-1H-indazole], for which the IC50 in test [1] (MOLM-13, 168 h) amounted to 120 nM; on Menin-MLL (setting [3]) it was 50 nM; in test [2], 36 nM.

Turning to `CO[C@H]1CCN([C@H]2C[C@@H](C(C(C)C)N3CC(c4cc(-c5ccc(F)cc5C(=O)N5CCOC[C@H]5C)c5cnn(C)c5c4)C3)C2)C1` (stereo partly drawn) [Example 196-2, 4-{4-fluoro-2-[(3R)-3-methylmorpholin-4-carbonyl]phenyl}-1-methyl-6-(1-{2-methyl-1-[(1s,3s)-3-[(3S)-3-methoxypyrrolidin-1-yl]cyclobutyl]propyl}azacyclobutan-3-yl)-1H-indazole], the 50% inhibitory concentration (IC50) in test [1] (MOLM-13, 168 h) turned out to be 28 nM; on Menin-MLL (setting [3]), 17 nM; in test [2], 9.6 nM.
